Data published in patent US7566712B2, “Biaryl piperazinyl-pyridine analogues” (Neurogen Corporation, priority 2003, dated 2009).

Target: T1, human capsaicin receptor (Homo sapiens, UniProt Q8NER1)
T1 construct: pBK-CMV expression construct encoding the full length human capsaicin receptor; expressed in transfected cells
Assay: Calcium mobilization assay, determination of antagonist activity (Example 6)
Assay type: cell-based
Details: determined as described in Example 6 (calcium mobilization, antagonist activity); Table II
Method in brief: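 Antagonism measured as inhibition of capsaicin-evoked (final concentration = EC50, from an 8-point 1 nM–3 μM curve) Fluo-3 calcium signal in stable hVR1-HEK293 cells. Test compounds at 1–5 μM final, 0.5–6 h dark preincubation at room temperature. IC50 = concentration giving 50% reduction versus agonist-only response.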

T1 sequence (Q8NER1 whole entry): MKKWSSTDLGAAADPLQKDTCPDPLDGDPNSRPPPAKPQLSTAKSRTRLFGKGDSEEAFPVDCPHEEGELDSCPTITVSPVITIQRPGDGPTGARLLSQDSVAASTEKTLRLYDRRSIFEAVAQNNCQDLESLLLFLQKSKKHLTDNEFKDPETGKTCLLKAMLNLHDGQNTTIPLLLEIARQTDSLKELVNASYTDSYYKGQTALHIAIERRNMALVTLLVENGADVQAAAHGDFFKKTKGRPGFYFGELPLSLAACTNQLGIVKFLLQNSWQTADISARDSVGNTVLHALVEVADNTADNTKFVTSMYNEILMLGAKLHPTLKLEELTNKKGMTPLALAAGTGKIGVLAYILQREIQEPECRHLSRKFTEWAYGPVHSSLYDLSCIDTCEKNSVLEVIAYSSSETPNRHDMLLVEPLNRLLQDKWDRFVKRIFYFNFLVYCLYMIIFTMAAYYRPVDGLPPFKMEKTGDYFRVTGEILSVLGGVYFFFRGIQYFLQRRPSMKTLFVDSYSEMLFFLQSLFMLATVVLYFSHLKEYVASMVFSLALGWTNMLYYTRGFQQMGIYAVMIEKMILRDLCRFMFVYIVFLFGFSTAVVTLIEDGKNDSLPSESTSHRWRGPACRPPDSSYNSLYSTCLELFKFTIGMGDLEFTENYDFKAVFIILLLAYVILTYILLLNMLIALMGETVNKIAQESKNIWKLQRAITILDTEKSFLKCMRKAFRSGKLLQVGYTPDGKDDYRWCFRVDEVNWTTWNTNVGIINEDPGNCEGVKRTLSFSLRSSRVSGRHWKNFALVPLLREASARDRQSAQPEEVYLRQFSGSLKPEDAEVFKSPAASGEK

Compound	IC50
CNc1nc(-c2ccc(F)c(Cl)c2)cc(N2CCN(c3ncccc3C(F)(F)F)CC2)n1 [Example 639, 4-(3-chloro-4-fluorophenyl)-N-methyl-6-{4-[3-(trifluoromethyl)pyridin-2-yl]piperazin-1-yl}pyrimidin-2-amine]	≤ 1000 nM
Cc1cc(-c2cc(N3CCN(c4ncccc4C(F)(F)F)CC3)nc(N(C)C(C)C)n2)ccc1F [Example 640, 4-(4-fluoro-3-methylphenyl)-N-isopropyl-N-methyl-6-{4-[3-(trifluoromethyl)pyridin-2-yl]piperazin-1-yl}pyrimidin-2-amine]	≤ 1000 nM
Cc1cc(-c2cc(N3CCN(c4ncccc4C(F)(F)F)CC3)nc(N3CCNC(C)C3)n2)ccc1F (stereo not drawn) [Example 641, 4-(4-fluoro-3-methylphenyl)-2-(3-methylpiperazin-1-yl)-6-{4-[3-(trifluoromethyl)pyridin-2-yl]piperazin-1-yl}pyrimidine]	≤ 1000 nM
Cc1cc(-c2cc(N3CCN(c4ncccc4C(F)(F)F)CC3)nc(N3CCCCC3C)n2)ccc1F (stereo not drawn) [Example 642, 4-(4-fluoro-3-methylphenyl)-2-(2-methylpiperidin-1-yl)-6-{4-[3-(trifluoromethyl)pyridin-2-yl]piperazin-1-yl}pyrimidine]	≤ 1000 nM
Cc1cc(-c2cc(N3CCN(c4ncccc4C(F)(F)F)CC3)nc(N3CCN(C(=O)OC(C)(C)C)CC3)n2)ccc1F [Example 643, tert-butyl 4-(4-(4-fluoro-3-methylphenyl)-6-{4-[3-(trifluoromethyl)pyridin-2-yl]piperazin-1-yl}pyrimidin-2-yl)piperazine-1-carboxylate]	≤ 1000 nM
CC(C)N(CCO)c1nc(-c2ccc(F)c(Cl)c2)cc(N2CCN(c3ncccc3C(F)(F)F)CC2)n1 [Example 644, 2-[(4-(3-chloro-4-fluorophenyl)-6-{4-[3-(trifluoromethyl)pyridin-2-yl]piperazin-1-yl}pyrimidin-2-yl)(isopropyl)amino]ethanol]	≤ 1000 nM
Cc1cc(-c2cc(N3CCN(c4ncccc4C(F)(F)F)CC3)nc(N3CCNCC3)n2)ccc1F [Example 645, 4-(4-fluoro-3-methylphenyl)-2-piperazin-1-yl-6-{4-[3-(trifluoromethyl)pyridin-2-yl]piperazin-1-yl}pyrimidine]	≤ 1000 nM
Cc1cccnc1N1CCN(c2cc(-c3ccc(F)c(Cl)c3)nc(N3CCOCC3)n2)CC1C (stereo not drawn) [Example 646, 4-{4-(3-chloro-4-fluorophenyi)-6-[3-methyl-4-(3-methylpyridin-2-yl)piperazin-1-yl]pyrimidin-2-yl}morpholine]	≤ 1000 nM
CCc1nc(C)cn1-c1nc(-c2cccc(Cl)c2)cc(N2CCN(c3ncccc3C(F)(F)F)CC2)n1 [Example 647, 4-(3-chlorophenyl)-2-(2-ethyl-4-methyl-1H-imidazol-1-yl)-6-(4-[3-(trifluoromethyl)pyridin-2-yl]piperazin-1-yl}pyrimidine]	≤ 1000 nM
CCc1nccn1-c1nc(-c2ccc(F)c(Cl)c2)cc(N2CCN(c3ncccc3C(F)(F)F)CC2)n1 [Example 648, 4-(3-chloro-4-fluorophenyl)-2-(2-ethyl-1H-imidazol-1-yl)-6-{4-[3-(trifluoromethyl)pyridin-2-yl]piperazin-1-yl}pyrimidine]	≤ 1000 nM
Fc1ccc(-c2cc(N3CCN(c4ncccc4C(F)(F)F)CC3)nc(SCc3ccccc3)n2)cc1Cl [Example 649, 2-(benzylthio)-4-(3-chloro-4-fluorophenyl)-6-{4-[3-(trifluoromethyl)pyridin-2-yl]piperazin-1-yl}pyrimidine]	≤ 1000 nM
O=S(=O)(Cc1ccccc1)c1nc(-c2ccc(F)c(Cl)c2)cc(N2CCN(c3ncccc3C(F)(F)F)CC2)n1 [Example 650, 2-(benzylsulfonyl)-4-(3-chloro-4-fluorophenyl)-6-{4-[3-(trifluoromethyl)pyridin-2-yl]piperazin-1-yl}pyrimidine]	≤ 1000 nM
